# Key:
# Test in all cases: Kinase assay, 1 mM ATP
# Type in all cases: biochemical
# [1] = target: EPHA2 (Homo sapiens, UniProt P29317)
# Procedure: (§1) An off-chip mobility shift assay was performed by Carna Biosciences, Inc. (Kobe, Japan), according to their product instructions. […] The IC50 values were estimated according to the four-parameter logistic model.
# [2] = target: T1, RET (Homo sapiens, UniProt P07949)
# T1 construct: purchased Carna Biosciences
# Procedure: as §1
# [3] = target: DYRK1A (Homo sapiens, UniProt Q13627)
# Procedure: as §1
# [4] = target: FGFR2 (Homo sapiens, UniProt P21802)
# Procedure: as §1
# [5] = target: T2, Erk5 (Homo sapiens, UniProt Q13164)
# T2 construct: purchased Carna Biosciences
# Procedure: as §1
# [6] = target: PDK1 (Homo sapiens, UniProt O15530)
# Procedure: as §1
# [7] = target: T3, MINK (Homo sapiens, UniProt Q8N4C8)
# T3 construct: purchased Carna Biosciences
# Procedure: as §1
# [8] = target: NEK2 (Homo sapiens, UniProt P51955)
# Procedure: as §1
# [9] = target: EPHB1 (Homo sapiens, UniProt P54762)
# Procedure: as §1
# [10] = target: HER2 (Homo sapiens, UniProt P04626)
# Procedure: as §1
# [11] = target: T4, TNK1 (Homo sapiens, UniProt Q13470)
# T4 construct: purchased Carna Biosciences
# Procedure: as §1
# [12] = target: T5, AurC (Homo sapiens, UniProt Q9UQB9)
# T5 construct: purchased Carna Biosciences
# Procedure: as §1
# [13] = target: CLK2 (Homo sapiens, UniProt P49760)
# Procedure: as §1
# [14] = target: T6, EGFR(L858R) (Homo sapiens, UniProt P00533, L858R)
# T6 construct: purchased Carna Biosciences
# Procedure: as §1
# [15] = target: T7, PBK (Homo sapiens, UniProt Q96KB5)
# T7 construct: purchased Carna Biosciences
# Procedure: as §1
# [16] = target: EPHB2 (Homo sapiens, UniProt P29323)
# Procedure: as §1
# [17] = target: skMLCK (Homo sapiens, UniProt Q9H1R3)
# Procedure: as §1
# [18] = target: MST1 (Homo sapiens, UniProt Q13043)
# Procedure: as §1
# [19] = target: T8, EGFR(T790M/L858R) (Homo sapiens, UniProt P00533, L858R/T790M)
# T8 construct: purchased Carna Biosciences
# Procedure: as §1
# [20] = target: TYK2 (Homo sapiens, UniProt P29597)
# Procedure: as §1
# [21] = target: T9, TYRO3 (Homo sapiens, UniProt Q06418)
# T9 construct: purchased Carna Biosciences
# Procedure: as §1
# [22] = target: EPHA1 (Homo sapiens, UniProt P21709)
# Procedure: as §1
# [23] = target: JNK1 (Homo sapiens, UniProt P45983)
# Procedure: as §1
# [24] = target: RSK3 (Homo sapiens, UniProt Q15349)
# Procedure: as §1
# [25] = target: AMPKα1/β1/γ1 (Homo sapiens, UniProt Q13131)
# Procedure: as §1
# [26] = target: T10, SIK (Homo sapiens, UniProt P57059)
# T10 construct: purchased Carna Biosciences
# Procedure: as §1
# [27] = target: CDK7/CycH/MAT1 (Homo sapiens, UniProt P50613)
# Procedure: as §1
# [28] = target: DYRK1B (Homo sapiens, UniProt Q9Y463)
# Procedure: as §1
# [29] = target: T11, CHK2 (Homo sapiens, UniProt O96017)
# T11 construct: purchased Carna Biosciences
# Procedure: as §1
# [30] = target: IRAK4 (Homo sapiens, UniProt Q9NWZ3)
# Procedure: as §1
# [31] = target: CDK6/CycD3 (Homo sapiens, UniProt Q00534)
# Procedure: as §1
# [32] = target: ARG (Homo sapiens, UniProt P42684)
# Procedure: as §1
# [33] = target: EPHB3 (Homo sapiens, UniProt P54753)
# Procedure: as §1
# [34] = target: T12, JAK3 (Homo sapiens, UniProt P52333)
# T12 construct: purchased Carna Biosciences
# Procedure: as §1
# [35] = target: T13, PDGFRβ (Homo sapiens, UniProt P09619)
# T13 construct: purchased Carna Biosciences
# Procedure: as §1
# [36] = target: T14, LYNb (Homo sapiens, UniProt P07948)
# T14 construct: purchased Carna Biosciences
# Procedure: as §1
# [37] = target: T15, EPHA8 (Homo sapiens, UniProt P29322)
# T15 construct: purchased Carna Biosciences
# Procedure: as §1
# [38] = target: T16, FGFR3 (Homo sapiens, UniProt P22607)
# T16 construct: purchased Carna Biosciences
# Procedure: as §1
# [39] = target: PIM2 (Homo sapiens, UniProt Q9P1W9)
# Procedure: as §1
# [40] = target: HIPK4 (Homo sapiens, UniProt Q8NE63)
# Procedure: as §1
# [41] = target: Erk1 (Homo sapiens, UniProt P27361)
# Procedure: as §1
# [42] = target: T17, RET(G691S) (Homo sapiens, UniProt P07949, G691S)
# T17 construct: purchased Carna Biosciences
# Procedure: as §1
# Chain of EPHB1 (P54762 18-984): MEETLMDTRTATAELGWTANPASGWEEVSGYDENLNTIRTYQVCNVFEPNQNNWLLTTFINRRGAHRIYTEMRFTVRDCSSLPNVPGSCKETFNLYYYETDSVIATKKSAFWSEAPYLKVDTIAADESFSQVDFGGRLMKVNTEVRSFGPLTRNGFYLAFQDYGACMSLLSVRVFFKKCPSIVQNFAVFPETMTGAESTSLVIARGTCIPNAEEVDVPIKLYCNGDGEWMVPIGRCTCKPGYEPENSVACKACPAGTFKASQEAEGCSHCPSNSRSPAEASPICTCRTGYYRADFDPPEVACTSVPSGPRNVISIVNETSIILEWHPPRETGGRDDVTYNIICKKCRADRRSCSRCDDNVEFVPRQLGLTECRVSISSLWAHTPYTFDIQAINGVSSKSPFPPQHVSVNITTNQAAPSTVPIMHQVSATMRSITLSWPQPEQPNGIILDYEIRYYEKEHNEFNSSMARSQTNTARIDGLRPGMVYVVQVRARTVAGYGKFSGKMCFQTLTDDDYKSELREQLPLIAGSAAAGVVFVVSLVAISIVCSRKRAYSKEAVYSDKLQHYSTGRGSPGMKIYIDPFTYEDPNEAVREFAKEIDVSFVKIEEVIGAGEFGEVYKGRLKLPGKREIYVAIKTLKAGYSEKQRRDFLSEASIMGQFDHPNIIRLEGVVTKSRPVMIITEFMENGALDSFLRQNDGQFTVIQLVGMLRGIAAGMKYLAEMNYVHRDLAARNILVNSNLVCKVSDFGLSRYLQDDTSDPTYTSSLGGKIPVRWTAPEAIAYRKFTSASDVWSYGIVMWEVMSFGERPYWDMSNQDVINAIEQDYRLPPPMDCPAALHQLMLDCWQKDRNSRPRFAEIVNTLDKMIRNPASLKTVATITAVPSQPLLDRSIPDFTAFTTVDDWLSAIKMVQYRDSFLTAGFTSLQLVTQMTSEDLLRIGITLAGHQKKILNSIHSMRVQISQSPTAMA
# T15 sequence (P29322 28-1005): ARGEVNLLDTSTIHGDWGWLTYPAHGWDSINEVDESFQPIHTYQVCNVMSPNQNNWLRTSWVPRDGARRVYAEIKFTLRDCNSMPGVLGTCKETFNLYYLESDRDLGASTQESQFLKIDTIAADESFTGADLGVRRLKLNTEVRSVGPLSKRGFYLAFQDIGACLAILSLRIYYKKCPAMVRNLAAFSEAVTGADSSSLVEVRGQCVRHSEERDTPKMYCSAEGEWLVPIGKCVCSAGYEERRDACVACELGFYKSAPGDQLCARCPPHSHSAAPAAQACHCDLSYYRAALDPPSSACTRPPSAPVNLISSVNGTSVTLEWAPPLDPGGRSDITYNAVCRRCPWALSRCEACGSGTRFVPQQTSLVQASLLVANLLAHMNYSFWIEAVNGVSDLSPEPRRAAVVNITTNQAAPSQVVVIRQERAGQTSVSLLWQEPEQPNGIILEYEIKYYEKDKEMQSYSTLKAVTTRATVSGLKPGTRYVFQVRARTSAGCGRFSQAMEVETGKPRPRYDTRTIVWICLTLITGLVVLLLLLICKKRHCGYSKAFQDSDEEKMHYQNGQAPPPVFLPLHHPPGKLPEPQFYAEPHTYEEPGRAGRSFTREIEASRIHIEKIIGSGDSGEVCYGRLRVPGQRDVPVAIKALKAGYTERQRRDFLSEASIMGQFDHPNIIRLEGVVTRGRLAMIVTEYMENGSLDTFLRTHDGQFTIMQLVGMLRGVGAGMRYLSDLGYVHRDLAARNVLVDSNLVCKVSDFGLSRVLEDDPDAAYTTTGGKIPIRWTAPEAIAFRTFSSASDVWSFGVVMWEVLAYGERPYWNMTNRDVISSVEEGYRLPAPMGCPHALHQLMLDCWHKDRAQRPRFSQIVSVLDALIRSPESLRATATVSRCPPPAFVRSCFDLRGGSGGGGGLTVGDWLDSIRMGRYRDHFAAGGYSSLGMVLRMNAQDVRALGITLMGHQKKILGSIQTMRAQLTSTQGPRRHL
# Chain of NEK2 (P51955 whole entry): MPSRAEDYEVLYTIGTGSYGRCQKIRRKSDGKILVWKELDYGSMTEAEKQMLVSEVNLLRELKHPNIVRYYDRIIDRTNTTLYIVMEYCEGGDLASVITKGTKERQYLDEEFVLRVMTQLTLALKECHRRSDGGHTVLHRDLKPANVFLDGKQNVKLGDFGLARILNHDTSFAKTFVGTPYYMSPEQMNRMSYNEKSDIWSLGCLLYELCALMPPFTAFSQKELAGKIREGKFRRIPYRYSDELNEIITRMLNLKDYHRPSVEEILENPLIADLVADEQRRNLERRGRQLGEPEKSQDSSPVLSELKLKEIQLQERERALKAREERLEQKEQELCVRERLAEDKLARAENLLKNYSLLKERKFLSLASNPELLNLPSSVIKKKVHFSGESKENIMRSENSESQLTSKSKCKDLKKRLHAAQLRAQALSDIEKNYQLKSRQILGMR
# Chain of FGFR2 (P21802 22-821): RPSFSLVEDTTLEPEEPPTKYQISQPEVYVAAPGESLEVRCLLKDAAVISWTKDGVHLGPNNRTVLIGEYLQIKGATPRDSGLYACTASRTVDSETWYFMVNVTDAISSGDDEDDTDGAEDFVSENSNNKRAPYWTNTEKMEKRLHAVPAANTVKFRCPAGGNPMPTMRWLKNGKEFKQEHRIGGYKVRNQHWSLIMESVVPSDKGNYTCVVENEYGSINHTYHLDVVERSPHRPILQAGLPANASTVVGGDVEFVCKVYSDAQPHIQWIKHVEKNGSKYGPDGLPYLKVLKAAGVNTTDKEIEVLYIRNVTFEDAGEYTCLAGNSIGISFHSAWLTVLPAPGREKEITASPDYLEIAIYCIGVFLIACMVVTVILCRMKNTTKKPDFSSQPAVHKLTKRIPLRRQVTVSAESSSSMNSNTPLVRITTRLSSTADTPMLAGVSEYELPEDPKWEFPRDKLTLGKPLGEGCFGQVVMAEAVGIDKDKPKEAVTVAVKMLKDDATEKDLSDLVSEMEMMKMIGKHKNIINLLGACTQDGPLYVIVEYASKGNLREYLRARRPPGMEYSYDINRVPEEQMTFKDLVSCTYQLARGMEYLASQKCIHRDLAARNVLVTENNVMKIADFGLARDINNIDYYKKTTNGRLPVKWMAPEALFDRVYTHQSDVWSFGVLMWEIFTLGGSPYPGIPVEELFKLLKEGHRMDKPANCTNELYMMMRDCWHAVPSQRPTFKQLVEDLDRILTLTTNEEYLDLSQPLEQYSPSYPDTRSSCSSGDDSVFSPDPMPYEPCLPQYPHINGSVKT
# Chain of ARG (P42684 whole entry): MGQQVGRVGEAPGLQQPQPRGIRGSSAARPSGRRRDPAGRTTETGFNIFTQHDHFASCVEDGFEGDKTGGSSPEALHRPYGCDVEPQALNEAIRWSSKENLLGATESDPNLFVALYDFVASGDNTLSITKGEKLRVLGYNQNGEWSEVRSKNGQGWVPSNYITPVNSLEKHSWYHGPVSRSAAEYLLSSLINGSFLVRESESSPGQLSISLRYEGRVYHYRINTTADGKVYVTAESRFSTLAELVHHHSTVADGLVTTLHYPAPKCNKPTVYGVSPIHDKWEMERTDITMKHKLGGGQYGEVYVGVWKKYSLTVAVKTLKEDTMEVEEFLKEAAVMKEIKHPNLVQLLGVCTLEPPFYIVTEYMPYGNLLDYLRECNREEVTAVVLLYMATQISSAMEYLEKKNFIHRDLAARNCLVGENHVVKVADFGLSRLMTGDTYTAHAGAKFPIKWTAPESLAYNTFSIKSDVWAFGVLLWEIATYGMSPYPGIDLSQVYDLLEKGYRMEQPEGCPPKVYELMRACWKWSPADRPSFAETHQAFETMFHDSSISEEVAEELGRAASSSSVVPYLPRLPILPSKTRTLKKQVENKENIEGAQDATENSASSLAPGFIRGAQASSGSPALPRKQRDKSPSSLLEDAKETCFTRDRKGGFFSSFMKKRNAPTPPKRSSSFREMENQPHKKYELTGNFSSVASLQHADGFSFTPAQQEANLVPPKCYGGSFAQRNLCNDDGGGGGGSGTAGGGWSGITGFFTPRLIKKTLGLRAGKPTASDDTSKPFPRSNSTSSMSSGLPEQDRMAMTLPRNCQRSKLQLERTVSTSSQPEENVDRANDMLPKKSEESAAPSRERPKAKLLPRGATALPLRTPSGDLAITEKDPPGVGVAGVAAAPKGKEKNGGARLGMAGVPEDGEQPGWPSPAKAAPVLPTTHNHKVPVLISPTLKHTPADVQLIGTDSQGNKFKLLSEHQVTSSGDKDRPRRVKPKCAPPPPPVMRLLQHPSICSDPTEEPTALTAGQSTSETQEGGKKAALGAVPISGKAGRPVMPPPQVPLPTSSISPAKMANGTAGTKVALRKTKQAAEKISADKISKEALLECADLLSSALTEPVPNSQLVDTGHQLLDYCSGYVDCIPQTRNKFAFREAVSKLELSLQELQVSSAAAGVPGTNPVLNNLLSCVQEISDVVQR
# Chain of PIM2 (Q9P1W9 whole entry): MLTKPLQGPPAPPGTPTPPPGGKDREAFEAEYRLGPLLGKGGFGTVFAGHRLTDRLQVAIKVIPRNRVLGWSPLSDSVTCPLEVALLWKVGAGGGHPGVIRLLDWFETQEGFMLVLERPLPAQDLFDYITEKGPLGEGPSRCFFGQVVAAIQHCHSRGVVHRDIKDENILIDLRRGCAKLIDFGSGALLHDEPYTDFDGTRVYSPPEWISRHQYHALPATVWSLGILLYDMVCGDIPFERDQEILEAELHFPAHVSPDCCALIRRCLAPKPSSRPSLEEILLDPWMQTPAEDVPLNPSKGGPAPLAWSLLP
# Chain of Erk1 (P27361 whole entry): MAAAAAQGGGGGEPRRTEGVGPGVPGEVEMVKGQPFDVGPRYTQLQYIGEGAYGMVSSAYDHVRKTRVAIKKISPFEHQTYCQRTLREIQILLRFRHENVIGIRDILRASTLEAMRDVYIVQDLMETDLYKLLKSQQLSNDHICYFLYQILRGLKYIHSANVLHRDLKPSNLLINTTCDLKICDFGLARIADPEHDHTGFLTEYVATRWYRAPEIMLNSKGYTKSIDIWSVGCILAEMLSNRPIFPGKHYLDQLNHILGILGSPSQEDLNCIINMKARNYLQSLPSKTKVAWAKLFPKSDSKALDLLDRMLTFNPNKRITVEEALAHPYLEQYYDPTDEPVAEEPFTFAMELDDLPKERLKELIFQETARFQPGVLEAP
compound,measurement,setting,value
C[C@@H](N)COc1ccc(-c2cnc3ccc(N[C@H](C)c4cccc(F)c4)nn23)cc1.O=C(O)CCCCC(=O)O [DS-6051b],inhibition at 0.2 µM,[1],-2.2%
same,inhibition at 0.2 µM,[2],0.6%
same,inhibition at 0.2 µM,[3],-11.4%
same,inhibition at 0.2 µM,[4],4.8%
same,inhibition at 0.2 µM,[5],5.2%
same,inhibition at 0.2 µM,[6],-4.9%
same,inhibition at 0.2 µM,[7],-2.2%
same,inhibition at 0.2 µM,[8],-0.8%
same,inhibition at 0.2 µM,[9],-3.5%
same,inhibition at 0.2 µM,[10],8.7%
same,inhibition at 0.2 µM,[11],12.7%
same,inhibition at 0.2 µM,[12],-19%
same,inhibition at 0.2 µM,[13],-1.1%
same,inhibition at 0.2 µM,[14],0.7%
same,inhibition at 0.2 µM,[15],-0.645%
same,inhibition at 0.2 µM,[16],-1.7%
same,inhibition at 0.2 µM,[17],-7.1%
same,inhibition at 0.2 µM,[18],11.5%
same,inhibition at 0.2 µM,[19],4%
same,inhibition at 0.2 µM,[20],8.3%
same,inhibition at 0.2 µM,[21],-1.2%
same,inhibition at 0.2 µM,[22],4.8%
same,inhibition at 0.2 µM,[23],-3.3%
same,inhibition at 0.2 µM,[24],-3.2%
same,inhibition at 0.2 µM,[25],-3.6%
same,inhibition at 0.2 µM,[26],8.9%
same,inhibition at 0.2 µM,[27],-0.3%
same,inhibition at 0.2 µM,[28],-8.2%
same,inhibition at 0.2 µM,[29],0.3%
same,inhibition at 0.2 µM,[30],-0.4%
same,inhibition at 0.2 µM,[31],2.1%
same,inhibition at 0.2 µM,[32],-0.122%
same,inhibition at 0.2 µM,[33],-0.7%
same,inhibition at 0.2 µM,[34],0.0922%
same,inhibition at 0.2 µM,[35],3.1%
same,inhibition at 0.2 µM,[36],4.8%
same,inhibition at 0.2 µM,[37],-9.1%
same,inhibition at 0.2 µM,[38],1.3%
same,inhibition at 0.2 µM,[39],-14%
same,inhibition at 0.2 µM,[40],-1.6%
same,inhibition at 0.2 µM,[41],-4.9%
same,inhibition at 0.2 µM,[42],-0.256%

# Reference: PMC6688997 (Nature Communications, 2019)
